Measurements from US20090291064A1 (priority 2008, published 2009).
Where two headings read alike, the source gives them in different places.

Experiments:
CYP2 = tested on: CYP2
Description: (§1) Several CYP450 enzymatic activities were investigated in PICM-19H cells to determine the presence and inducible nature of major CYP450 isoforms. […] Cells were washed with PBS and appropriate inducer medium was added for 48 h prior to experimentation.
(§2) CYP450 activity was assessed in T25 cultures of PICM-19H cells that were grown for 3 wk post-passage. T25 cultures of APH or HepG2 C3A cells were tested after 3 d of primary culture and at 1 wk post-passage or near confluency, respectively. […] After the initial induction, cells were washed and given a non-fluorescent substrate for CYP1A1, CYP1A2, CYP2, or CYP3A (7-ERF, 7-MRF, MFC, and BFC, respectively). […] Medium samples were collected, centrifuged to remove cell debris (14,000×g, 2 min) and frozen at −80° C. until analyzed. […] Briefly, samples were incubated at 37° C. with or without β-glucuronidase/arylsulphatase (15 Fishman/120 Roy units/ml, Roche Applied Sciences) in pH 4.5 acetate buffer for 2 h to release any fluorescent reaction product that had been conjugated via sulfation or glucurondation phase II conjugation reactions. Standard curves contained resorufin or 7-HFC were treated identically to the experimental medium samples. Fluorescence was determined in an HTS 7000 plate reader; excitation/emission filter pairs were 530/590 and 410/510 for resorufin and 7-HFC, respectively. To determine relative conjugation activity, fluorescence was also determined directly without incubating first in β-glucuronidase/arylsulphatase. Since conjugated forms of resorufin and 7-HFC are non-fluorescent, the difference between the direct and indirect fluorescence measurements represents the amount of product which had been modified by conjugating enzymes.

CYP 1A2 = tested on: CYP 1A2
Description: as §1, §2

CYP1A1 = details: pig
Description: as §1, §2

in vitro = details: pig, LC50, WST-1 viability

Structure (SMILES) | induction of BFCD activity (CYP3A; PICM-19H cells, 48 h with 5 μM 3-MC) [fold] | MFCD activity induction (in words) (CYP2; PICM-19H cells, 48 h with 1 mM PHB, 50 μM Rif or 5 μM 3-MC) | induction of MROD activity (CYP 1A2; PICM-19H cells, 48 h with 5 μM 3-MC, vs non-induced) [fold] | increase in EROD activity (CYP1A1) [fold] | CC50 (in vitro) [mM] | toxicity in glutathione-depleted cells (PICM-19H cells) | CC50 (PICM-19H cells; pig) [mM] | increase in BFCD activity compared to non-induced controls (CYP3A; pig) | MFCD activity induction (in words) (CYP2) | MROD activity (in words) (CYP 1A2)
Cc1ccc2cc3c(ccc4ccccc43)c3c2c1CC3 [3-MC, 3-methylcholanthrene] | 5.8 | equally induced | 5.5 | 198 |  |  |  |  |  | 
CC(=O)Nc1ccc(O)cc1 [acetaminophen] |  |  |  |  | 12.6 ± 0.75 | enhanced | ~13 |  |  | 
CCC1(c2ccccc2)C(=O)NC(=O)NC1=O [PHB, phenobarbital] |  |  |  | 7 |  |  |  | approximately 50% | equally induced | low
